{"source": "paper PMC7305236", "about": "“The atypical chemokine receptor ACKR3/CXCR7 is a broad-spectrum scavenger for opioid peptides” (Nature Communications, 2020)", "format_in_all_cases": "cell-based", "key": {"U87": {"test_system": "U87", "test": "Figure S6 EC50 comparison, U87 cells + chemokine", "details": "U87 cells + the labelled chemokine, titrated agonist not given, read-out: Ec50 (inset, Ec50 comparison)"}, "CXCR3A": {"molecular_target": "T1, CXCR3A (Homo sapiens, UniProt P49682)", "T1 construct": "expressed in transfected cells; host or cells: U87 cells", "T1 sequence (P49682 1-368)": "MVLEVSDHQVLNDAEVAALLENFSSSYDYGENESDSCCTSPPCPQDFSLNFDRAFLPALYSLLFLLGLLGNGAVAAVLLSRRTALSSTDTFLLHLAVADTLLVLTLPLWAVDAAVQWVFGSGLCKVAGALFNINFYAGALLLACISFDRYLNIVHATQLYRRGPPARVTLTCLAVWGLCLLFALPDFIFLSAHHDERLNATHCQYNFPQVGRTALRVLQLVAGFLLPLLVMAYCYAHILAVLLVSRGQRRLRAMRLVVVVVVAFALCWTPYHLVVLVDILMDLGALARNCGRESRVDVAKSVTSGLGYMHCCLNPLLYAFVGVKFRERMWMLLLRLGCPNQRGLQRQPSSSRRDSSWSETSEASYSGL", "test": "Figure S1a: screen of opioid peptides on CXCR3A", "details": "replicate 1"}, "[1]": {"test": "Figure 7g: values after +LIH383, +LIH inverse, +CXCL12, +CXCL10"}, "U87.ACKR3": {"test_system": "U87.ACKR3", "test": "Figure S6 EC50 comparison, U87.ACKR3 cells + chemokine", "details": "U87.ACKR3 cells + the labelled chemokine, titrated agonist not given, read-out: Ec50 (inset, Ec50 comparison)"}, "CXCR7": {"molecular_target": "T2, CXCR7 (Homo sapiens, UniProt P25106)", "T2 construct": "expressed in transfected cells; host or cells: U87 cells", "T2 sequence (P25106 whole entry)": "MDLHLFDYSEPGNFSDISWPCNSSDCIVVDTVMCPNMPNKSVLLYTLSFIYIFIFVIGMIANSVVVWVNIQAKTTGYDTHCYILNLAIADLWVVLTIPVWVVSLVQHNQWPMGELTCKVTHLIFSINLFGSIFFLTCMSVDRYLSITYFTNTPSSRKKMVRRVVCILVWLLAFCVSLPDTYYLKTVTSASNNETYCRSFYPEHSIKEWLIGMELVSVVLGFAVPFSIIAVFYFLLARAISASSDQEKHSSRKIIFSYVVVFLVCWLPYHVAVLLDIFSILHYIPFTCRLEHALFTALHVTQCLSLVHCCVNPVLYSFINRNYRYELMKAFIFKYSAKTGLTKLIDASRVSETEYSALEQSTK", "test": "Figure S1a: screen of opioid peptides on CXCR7"}, "CXCR4": {"molecular_target": "T3, CXCR4 (Homo sapiens, UniProt P61073)", "T3 construct": "expressed in transfected cells; host or cells: U87, transient cotransfection of pNBe vectors", "T3 sequence (P61073 whole entry)": "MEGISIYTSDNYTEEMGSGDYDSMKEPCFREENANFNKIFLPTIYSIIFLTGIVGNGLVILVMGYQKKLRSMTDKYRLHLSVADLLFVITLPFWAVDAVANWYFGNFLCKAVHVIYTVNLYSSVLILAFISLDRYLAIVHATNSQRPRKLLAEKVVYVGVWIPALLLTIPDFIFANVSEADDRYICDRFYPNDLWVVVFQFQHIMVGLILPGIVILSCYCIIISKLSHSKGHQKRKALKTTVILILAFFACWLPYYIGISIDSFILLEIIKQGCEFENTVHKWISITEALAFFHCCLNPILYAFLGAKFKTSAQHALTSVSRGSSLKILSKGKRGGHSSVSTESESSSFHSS"}, "KOR [2]": {"molecular_target": "T4, KOR (Homo sapiens, UniProt P41145)", "T4 sequence (P41145 whole entry)": "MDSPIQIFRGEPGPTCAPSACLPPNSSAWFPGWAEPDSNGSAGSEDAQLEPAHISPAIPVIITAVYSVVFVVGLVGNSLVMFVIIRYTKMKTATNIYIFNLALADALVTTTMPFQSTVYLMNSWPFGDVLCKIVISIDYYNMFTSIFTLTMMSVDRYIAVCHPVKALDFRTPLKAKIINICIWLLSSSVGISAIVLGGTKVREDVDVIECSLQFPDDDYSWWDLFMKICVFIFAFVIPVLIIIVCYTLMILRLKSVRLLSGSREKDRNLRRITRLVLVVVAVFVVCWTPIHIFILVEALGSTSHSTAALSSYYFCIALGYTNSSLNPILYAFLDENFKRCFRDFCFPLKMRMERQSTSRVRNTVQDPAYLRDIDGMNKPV", "test": "Figure 6h, KOR, DMSO vs Bafilomycin treatment", "design": "expressed in transfected cells; host or cells: U87 (human glioblastoma)", "details": "n = 3 or 4 as in cell"}, "[3]": {"test": "Figure 7f: response to FBS, CXCL12, opioid peptides and LIH383 relative to Medium", "details": "Medium about 1"}, "KOR [4]": {"molecular_target": "T4, KOR", "test": "Figure 6h, KOR level after ligand with DMSO or Bafilomycin", "design": "expressed in transfected cells; host or cells: U87 (human glioblastoma)"}}, "note": "Where two headings read alike, the source gives them in different places."}
{"substance": "CXCL10", "values": [{"measurement": "EC50", "setting": "U87; replicate 1", "result": 6.8, "unit": "nM"}, {"measurement": "EC50", "setting": "U87; replicate 2", "result": 9.32, "unit": "nM"}, {"measurement": "EC50", "setting": "U87; replicate 3", "result": 14, "unit": "nM"}, {"measurement": "Figure S1a value, CXCR3A", "setting": "CXCR3A", "result": 79.87}, {"measurement": "Figure 7g value", "setting": "[1]; replicate 1", "result": 43.9358}, {"measurement": "Figure 7g value", "setting": "[1]; replicate 2", "result": 53.1833}, {"measurement": "Figure 7g value", "setting": "[1]; replicate 3", "result": 71.6583}, {"measurement": "Figure 7g value", "setting": "[1]; replicate 4", "result": 66.9981}, {"measurement": "EC50", "setting": "U87.ACKR3; replicate 1", "result": 17.2, "unit": "nM"}, {"measurement": "EC50", "setting": "U87.ACKR3; replicate 2", "result": 18.1, "unit": "nM"}, {"measurement": "EC50", "setting": "U87.ACKR3; replicate 3", "result": 19.3, "unit": "nM"}, {"measurement": "EC50", "setting": "U87.ACKR3; replicate 4", "result": 29.1, "unit": "nM"}, {"measurement": "Figure S1a value, CXCR7", "setting": "CXCR7; replicate 1", "result": 93.7533}, {"measurement": "Figure S1a value, CXCR7", "setting": "CXCR7; replicate 2", "result": 74.5914}, {"measurement": "Figure S1a value, CXCR4", "setting": "CXCR4; replicate 1", "result": 64.0305}, {"measurement": "Figure S1a value, CXCR4", "setting": "CXCR4; replicate 2", "result": 102.577}]}
{"substance": "CXCL12", "values": [{"measurement": "Mean ± SEM (Figure 6h, KOR)", "setting": "KOR [2]; 'DMSO vs Bafilomycin treatment'", "result": "112,6 ± 3,88, n=4"}, {"measurement": "Mean ± SEM (Figure 6h, KOR)", "setting": "KOR [2]; first of two columns under 'DMSO vs Bafilomycin treatment' (presumably DMSO)", "result": "107,9 ± 5,673, n=4"}, {"measurement": "EC50", "setting": "U87; replicate 1", "result": 2.9, "unit": "nM"}, {"measurement": "EC50", "setting": "U87; replicate 2", "result": 11, "unit": "nM"}, {"measurement": "EC50", "setting": "U87; replicate 3", "result": 6.04, "unit": "nM"}, {"measurement": "EC50", "setting": "U87; replicate 4", "result": 5.61, "unit": "nM"}, {"measurement": "Figure 7f value", "setting": "[3]; replicate 1", "result": 0.8915}, {"measurement": "Figure 7f value", "setting": "[3]; replicate 2", "result": 0.9254}, {"measurement": "Figure 7f value", "setting": "[3]; replicate 4", "result": 0.9153}, {"measurement": "Figure S1a value, CXCR3A", "setting": "CXCR3A", "result": 103.792}, {"measurement": "Figure 7g value", "setting": "[1]; replicate 1", "result": 102.594}, {"measurement": "Figure 7g value", "setting": "[1]; replicate 2", "result": 103.187}, {"measurement": "Figure 7g value", "setting": "[1]; replicate 3", "result": 90.4001}, {"measurement": "Figure 7g value", "setting": "[1]; replicate 4", "result": 88.8058}, {"measurement": "EC50", "setting": "U87.ACKR3; replicate 1", "result": 7.39, "unit": "nM"}, {"measurement": "EC50", "setting": "U87.ACKR3; replicate 2", "result": 9.3, "unit": "nM"}, {"measurement": "EC50", "setting": "U87.ACKR3; replicate 3", "result": 13.1, "unit": "nM"}, {"measurement": "KOR level after ligand (Figure 6h)", "setting": "KOR [4]; Bafilomycin, replicate 1", "result": 115.399}, {"measurement": "KOR level after ligand (Figure 6h)", "setting": "KOR [4]; Bafilomycin, replicate 2", "result": 101.029}, {"measurement": "KOR level after ligand (Figure 6h)", "setting": "KOR [4]; Bafilomycin, replicate 3", "result": 116.035}, {"measurement": "KOR level after ligand (Figure 6h)", "setting": "KOR [4]; Bafilomycin, replicate 4", "result": 117.81}, {"measurement": "KOR level after ligand (Figure 6h)", "setting": "KOR [4]; DMSO, replicate 1", "result": 95.0504}, {"measurement": "KOR level after ligand (Figure 6h)", "setting": "KOR [4]; DMSO, replicate 3", "result": 120.17}, {"measurement": "KOR level after ligand (Figure 6h)", "setting": "KOR [4]; DMSO, replicate 4", "result": 114.207}, {"measurement": "Figure S1a value, CXCR4", "setting": "CXCR4; replicate 1", "result": 122.173}, {"measurement": "Figure S1a value, CXCR4", "setting": "CXCR4; replicate 2", "result": 86.6576}]}
